Source: patent US20030166723A1, “Ige production inhibitors” (priority 2000, published 2003)
Where two headings read alike, the source gives them in different places.

Assays:
NC/Nga mice = test: Disease score of NC/Nga mice (AD model), oral administration; assay type: in vivo, mouse
From the text: As a model animal, NC/Nga mouse was used. The NC/Nga mouse is an inbred mouse established in 1957, which is originated from “[…]” mouse, a pet mouse. Long since, it has been known that this mouse is sensitive to X-rays and to ovalbumin-caused anaphylactic shocks. […] Such AD-like phenotype occurs in the ordinary environment but not in a SPF (specific pathogen-free) environment where neither microorganism nor parasite exists, so that the onset of the disease can be controlled. In this view, the mouse was used as a disease model of atopic dermatitis in carrying out the present invention As the model animal, 5-week-old male NC/Nga mice bred in SPF environment, presenting neither dermatitis-like feature nor hyperIgE syndrome were used. To these mice, GLA ethyl ester (degree of purification of 95.98%: manufactured by Idemitsu Material Co., Ltd.) was administered by a stomach tube method in a dosage of 50 mg/individual once every other day starting from 5-week-old to obtain a GLA-administered group composed of 6 animals. On the other hand, as a control, PBS (phosphate buffered saline) instead of GLA ethyl ester was likewise administered in a dosage of 50 μg/individual to obtain a control group composed of 6 animals. In each week from the onset of administration (5 weeks old) up to 19 weeks old, the disease scores of the above-mentioned mice were converted into points according to the method of Matsuda et al. (Int. Immunol., 9, 461-466, 1997). A concrete method is described below. The following 5 items from A to E were scored by a three point full mark scoring system of 0 (none), 1 (slightly aggravated), 2 (moderately aggravated), and 3 (considerably aggravated). In total, 15 points make a full score. […] B (erythema, bleeding); Bleeding from ears and face and erythema on the back of ears were scored. C (edema): Mainly, degree of swelling of ears was scored. D (abrasions, erosion): Abrasions around the face, on the back of ears, and at around the base of arm were scored. E (dryness): Degree of dry skin from the back to the face was scored. As the model animal, 5-week-old male NC/Nga mice bred in SPF environment, presenting neither dermatitis-like feature nor hyperIgE syndrome were used. The animals were divided into each group composed of 10 animals. For the GLA-administered group, GLA ethyl ester (degree of purification of 95.98%: manufactured by Idemitsu Material Co., Ltd.) was administered by a stomach tube method in a dosage of 0.1 mg/individual once every other day. Administration of GLA was performed by using, olive oil containing little essential fatty acid which was added to 0.1 mg of GLA ethyl ester to make 50 μl. For the control group, 50 μl of olive oil alone was likewise administered. The disease score of mice in these groups were calculated every week in the same manner as in Example 1 and total IgE amount in plasma was measured once every other week.

IgE = details: for total IgE amount in plasma compared with control group: stomach tube
Description: As the model animal, 5-week-old male NC/Nga mice bred in SPF environment, presenting neither dermatitis-like feature nor hyperIgE syndrome were used. To these mice, GLA ethyl ester (degree of purification of 95.98%: manufactured by Idemitsu Material Co., Ltd.) was administered by a stomach tube method in a dosage of 50 mg/individual once every other day starting from 5-week-old to obtain a GLA-administered group composed of 6 animals. On the other hand, as a control, PBS (phosphate buffered saline) instead of GLA ethyl ester was likewise administered in a dosage of 50 μg/individual to obtain a control group composed of 6 animals.
In addition, blood was collected from the above-mentioned mice at the time of starting the administration (5 weeks old), and at 7, 9, and 11 weeks old and was centrifuged at 1,500 rpm for 10 minutes to obtain plasma. Then, total IgE amount in the plasma was measured by a sandwich ELISA method. A concrete method thereof is described below.
Rat anti-murine IgE monoclonal antibody (manufactured by PharMingen Co.) diluted to […] with coating buffer (0.1 M NaHCO3, 0.5 M NaCl, pH 8.5) was added to each well of a plate (NUNC-IMMUNOPLATE, manufactured by NUNC Inc., A/S) in an amount of 50 μl, and left to stand at 4° C. overnight or at 37° C. for 3 hours, followed by washing the wells with PBS/Tween (PBS, 0.05% Tween-20, pH 7.5) 3 times.
To each well, 200 μl of blocking buffer (PBS containing 2% skimmed milk) was added and incubated at 37° C. for 3 hours, followed by washing the wells with PBS/Tween 3 times.
Then, the above-mentioned murine plasma was diluted 100 folds with dilution buffer (PBS, 2% skimmed milk, 0.25% SDS) to prepare a sample for measurement. Furthermore, murine IgE standard (manufactured by PharmMingen Co.) was diluted with dilution buffer to prepare a standard for measurement.
The samples for measurement and standard were added to each well in amounts of 50 μl/well and incubated at 37° C. for 3 hours, followed by washing the wells with PBS/Tween 3 times.
Biotinylated rat anti-murine IgE antibody (manufactured by PharmMingen Co.) diluted to 2 μg/ml with dilution buffer was added to each well in an amount of 50 μl and incubated at 37° C. for about 3 hours, followed by washing the wells with PBS/Tween 6 times.
Furthermore, alkaline phosphatase-labeled Streptoavidin (manufactured by BioSource, Inc.) diluted to 1.000 folds with dilution buffer was added to the wells in an amount of 50 μl/well and incubated at 37° C. for 1 hour, followed by washing the wells with PBS/Tween 6 times.
As the model animal, 5-week-old male NC/Nga mice bred in SPF environment, presenting neither dermatitis-like feature nor hyperIgE syndrome were used. The animals were divided into each group composed of 10 animals. For the GLA-administered group, GLA ethyl ester (degree of purification of 95.98%: manufactured by Idemitsu Material Co., Ltd.) was administered by a stomach tube method in a dosage of 0.1 mg/individual once every other day. Administration of GLA was performed by using, olive oil containing little essential fatty acid which was added to 0.1 mg of GLA ethyl ester to make 50 μl. For the control group, 50 μl of olive oil alone was likewise administered.
The disease score of mice in these groups were calculated every week in the same manner as in Example 1 and total IgE amount in plasma was measured once every other week.

[1] = test system: spleen cells of NC/Nga mice; details: BrdU 60-72 hours
Description: Here, the addition of GLA was performed by diluting it with ethanol to appropriate concentrations and making the final concentration of ethanol to be 0.1%.

[2] = test system: spleen cells of NC/Nga mice
From the text: In this example, the effect of GLA to inhibit IgE production in vitro was studied by an in vitro class switch induction system using spleen cells of the mice. First, spleen cells were collected from NC/Nga mice by the following method. An 8-week-old NC/Nga mouse bred in SPF environment, presenting neither dermatitis-like feature nor hyperIgE syndrome was sacrificed by dislocation fracture of the cervical vertebrae and the spleen was extracted in a sterile condition. The extracted spleen was placed in RPMI-1640 medium (about 3 ml) in a dish, and separated into individual cells with a sterilized pincette. The separated cells were placed in a 15-ml Falcon tube and the membrane of the spleen was removed. Then, the cells suspended in the medium were centrifuged at 1,500 rpm for 5 minutes to recover only the cells. Subsequently, to remove erythrocytes, the recovered cells were suspended in 10 ml of sterilized lysis buffer at 4° C. to cause hemolysis, followed by washing twice with sterilized PBS produced by Milli-Q at 4° C. to collect spleen cells. A portion of the obtained spleen cells was stained with Trypan Blue (Trypan Blue Stain 0.4%: manufactured by LIFE TECHNOLOGIES, INC.) and counted on a hemacytometer. Then, measurement of IgE amount in the culture supernatant in a class switch induction system was performed by the following procedure. Based on the number of cells counted by the above-mentioned method, the cells were inoculated on a plate (96-well cell culture microtest plate, with flat bottom, low evaporation type, made of polystyrene with a lid: manufactured by FALCON CO.) to a concentration of 2×10^5 cells/ml per well. The medium used here contained cytokine IL-4 (100 U/ml) and LPS (10 μg/ml) as stimulants for the IgE class switch induction. To observe the influences of GLA before, during, or after the stimulation for class switch, GLA was added to the media in various concentrations (0, 10, 20, 40, 60, 80, 120, 160 μg/ml) after 0 hour (at the start of culture), 48 hours, or 72 hours from the start. Here, the addition of GLA was performed by diluting it with ethanol to appropriate concentrations and making the final concentration of ethanol to be 0.1%. All the cultures were performed at 37° C. in a 5%-CO2 incubator and the cultured supernatants were recovered after 7 days (after 168 hours). The IgE amounts thereof were measured by a sandwich ELISA method.

[3] = oral administration of olive oil containing 0.1 mg GLA ethyl ester

Structure (SMILES): CCCCC/C=C\C/C=C\C/C=C\CCCCC(=O)O [GLA, γ-linolenic acid]
- average disease score compared with control group (NC/Nga mice; GLA ethyl ester 0.1 mg/individual in olive oil, stomach tube, once every other day, vs olive oil control, week 9 or thereafter): low average scores
- disease score compared with control group (NC/Nga mice; GLA ethyl ester 0.1 mg/individual in olive oil, stomach tube, once every other day, vs olive oil control, weeks 15 to 17): significantly low scores
- disease score compared with control group (NC/Nga mice; GLA ethyl ester 50 mg/individual, stomach tube, once every other day from 5 weeks old, vs PBS control, week 11 and weeks 13 to 19): significant inhibition of the disease score
- increase of disease score with time (NC/Nga mice; GLA ethyl ester 50 mg/individual, stomach tube, once every other day, at week 11 or thereafter): no significant increase was observed
- inhibition of IgE production in vivo (IgE; 2 month-long oral administration to AD-suffering NC/Nga mice with hyperIgE syndrome): no inhibition of IgE production
- increase of total IgE amount in plasma with time (IgE; GLA ethyl ester 0.1 mg/individual in olive oil, once every other day, at week 13 and thereafter): no significant increase was observed
- total IgE amount in plasma compared with control group (IgE; GLA ethyl ester 0.1 mg/individual in olive oil, once every other day, vs olive oil control, week 13 to week 19): significantly low values
- total IgE amount in plasma compared with control group (IgE; GLA ethyl ester 50 mg/individual, once every other day, vs PBS control, each measurement period (weeks 5, 7, 9, 11)): low in total IgE amount
- total IgE amount in plasma compared with control group (IgE; GLA ethyl ester 50 mg/individual, once every other day, vs PBS control, week 11): significantly low
- cell proliferation potency with increase of added GLA concentration ([1]; GLA 0-160 μg/ml added after 0 hour): a decrease in the cell proliferation potency was observed
- cell proliferation compared to no-GLA-added lot ([1]; GLA 40 μg/ml added after 0 hour): did not substantially decrease
- amount of totally produced IgE compared to no-GLA-added lot ([2]; GLA 40 μg/ml added after 0 hour of culture): about one tenth
- degree of decrease in total IgE amount produced versus decrease in cell proliferation ([2]; GLA 20 to 60 μμg/ml added after 0 hour): significantly greater
- inhibition of IgE production, dependence on concentration ([2]; GLA added after 0 hour of culture, 0-160 μg/ml, supernatant after 7 days): inhibits IgE production dose-dependently
- inhibition of IgE production (IgE amount in culture supernatant) ([2]; GLA added after 0 hour of culture, 120 μg/ml, supernatant after 7 days): complete inhibition of the IgE production
- inhibition of IgE production (IgE amount in culture supernatant) ([2]; GLA added after 48 hours of culture, above 120 μg/ml): not complete but significant inhibition
- inhibition of IgE production (IgE amount in culture supernatant) ([2]; GLA added after 48 hours of culture, up to 80 μg/ml): no IgE inhibition was observed
- inhibition of IgE production (IgE amount in culture supernatant) ([2]; GLA added after 72 hours of culture, at the added concentrations measured (10-160 μg/ml)): no significant inhibition of IgE production was observed

Structure (SMILES): CCCCC/C=C\C/C=C\C/C=C\CCCCC(=O)OCC [GLA ethyl ester]
- disease score (summary of Example 2) (NC/Nga mice; [3]): significantly low
- IgE amount (summary of Example 2) (IgE; [3]): significantly low
